Results reported in patent US20220062296A1, “COMBINATIONS OF GABAA ALPHA 5 AGONISTS AND SV2A INHIBITORS AND METHODS OF USING IN THE TREATMENT OF COGNITIVE IMPAIRMENT” (AGENEBIO, INC., priority 2020, published 2022).

Assays:
DG/CA3 of aMCI subjects = assay: fMRI activity in DG/CA3 during explicit 3-alternative forced choice task; type: in vivo, human; conditions: for DG/CA3 hyperactivity: two weeks
aMCI subjects = assay: Neuropsychological tests (Buschke Selective Reminding, Benton Visual Retention, Verbal Paired Associates); type: in vivo, human; conditions: levetiracetam 125 mg twice a day for two weeks
Description: All participants undergo neuropsychological evaluation at the time of assessment for treatment efficacy (Visits 1 and 2), as well as at the Baseline Visit. The evaluation occurs outside of the scanner and includes the Buschke Selective Reminding Test (Buschke and Fuld, 1974) and the Verbal Paired Associates subtest, the Logical Memory subtest, the Visual Reproduction subtest of the Wechsler Memory Scale-Revised (WMS-R) (Wechsler, 1997), and the Benton Visual Retention Test, as these tasks are particularly sensitive to medial temporal lobe function and early memory problems (Marquis et al., 2002 and Masur et al., 1994). Additionally, subjects are asked to complete tests of more general cognitive function such as tests to assess general mental status, executive function, attention and general naming ability. All neuropsychological tests are administered by a trained research assistant during a 60-minute session. As the three neuropsychological assessments in this study occur within a time period of 8 weeks, different versions of the neuropsychological tests are used to minimize test specific practice effects. Breaks are provided to the subject as needed.

somatostatin in DG hilus = assay: Somatostatin immunohistochemistry, SOM-immunoreactive neurons in DG hilus; type: in vivo, rat; conditions: 10 mg/kg/day, four weeks, osmotic mini-pumps; AI-LEV vs AI-VEH p<0.01
Description: Tissue was labeled with anti-SOM antiserum (Santa Cruz Biotechnology; cat. no. SC7819-P) using an established immunoperoxidase protocol and tissue sections were processed concurrently to minimize inter-replication variability (Haberman et al., 2009). The anti-SOM antiserum can detect somatostatin. Briefly, sections were washed in 0.1M phosphate-buffered saline (PBS) to remove cryoprotectant, and endogenous peroxidases were quenched in 0.3% H202 in PBS. After additional PBS washes, sections were blocked in 5% normal horse serum in PBS with 0.3% Triton. Sections were then incubated with primary antibody at a dilution of 1:1600 in PBS containing 0.15% Triton and 3% normal serum for 72 hours at 4° C. with agitation. […] The secondary antibody was detected with avidin-biotin complex (ABC Elite; Vector Laboratories Inc., Burlingame, Calif.) and the avidin-biotin complex was visualized with nickel-enhanced diaminobenzadine (Vector Laboratories Inc., Burlingame, Calif.). […]
Interneuron quantification was performed using a Zeiss Axioplan 2 microscope equipped with a motorized stage. […] Neuron counts were analyzed as the total number of hilar interneurons per hippocampal section for each rat.

[1] = Levetiracetam blood plasma levels in aMCI patients; type: in vivo; conditions: human, oral, based on aMCI patients, read-out: effective plasma level range (preferred range goal)
Description: Visit 1: At the end of the first drug/placebo period 2 weeks after the Baseline Visit, the medical, neurological and psychiatric evaluations and cognitive testing are repeated. The subject is also clinically evaluated for suicidal ideation. Blood is drawn again to repeat the standard tests and to determine whether there are any changes related to drug treatment; the subject's blood levetiracetam level is also obtained. All medication dispensed at the Baseline Visit (drug or placebo) is collected and subject compliance with the medication regimen is assessed. The first fMRI session (with cognitive tests) is conducted on the same day, either immediately before or immediately after the clinical assessment. Subjects discontinue first period treatment at this visit.
Visit 2: At approximately 2 weeks after the Washout Visit (i.e., 2 weeks after starting the second treatment period), the medical, neurological and psychiatric evaluations and the cognitive testing are repeated. The subject is clinically evaluated for suicidal ideation. […] All medication dispensed at the Washout Visit is collected and subject compliance with the medication regimen is assessed. […]
Human – in the human studies described in Examples 2 and 3, a subject's levetiracetam blood plasma level was assessed at each visit. […]

[2] = cited from earlier work

For `CC[C@@H](C(N)=O)N1CCCC1=O` [levetiracetam, (2S)-2-(2-oxopyrrolidin-1-yl)butanamide], the DG/CA3 hyperactivity (DG/CA3 of aMCI subjects; levetiracetam 62.5 mg BID cohort) was “does not significantly reduce”, the “DG/CA3 activity during lure stimuli correctly identified as similar” value (DG/CA3 of aMCI subjects; levetiracetam 125 mg twice a day for two weeks, vs placebo, p=0.037) was “reduces DG/CA3 hyper-activity” and the DG/CA3 hyperactivity (DG/CA3 of aMCI subjects; levetiracetam 250 mg BID cohort) was “does not significantly reduce”. For the same compound, the “Benton Visual Retention Test performance” value (aMCI subjects) was “fail to rescue performance”, the “Buschke Selective Reminding Test-Delayed Recall performance” value (aMCI subjects) was “fail to rescue performance” and the “Verbal Paired Associates Test-Delayed Recall performance” value (aMCI subjects) was “fail to rescue performance”. For the same compound, the “Verbal Paired Associates Test-Recognition performance” value (aMCI subjects) was “fail to rescue performance”, the “levels of somatostatin in DG hilus (SOM-immunoreactive hilar neurons)” value (somatostatin in DG hilus) was “restores the levels of somatostatin” and the concentration at 2 weeks [1] was 2900 to 4400 ng/mL. For the same compound, the “plasma half-life in elderly” value ([2]; expected, due to decreased renal function) was 9 to 10 h, the “time to steady state” value ([2]; multiple twice-daily dosing) was 2 days and the plasma half-life ([2]; oral administration) was “approximately 7±1 hour”. For the same compound, the “absorption after oral administration” value ([2]; oral) was “rapidly and almost completely absorbed”, the “effect of food on bioavailability” value ([2]; oral) was “not affected by food” and the “time of peak plasma concentrations following oral administration” value ([2]; oral) was “about 1 hour”.
